In patent US6384055B1, “Utilization of derivatives of tetrahydropyridines (or 4-hydroxypiperidines)-butylazols in the preparation of a medicament for the treatment of pain” (Laboratorios Del Dr. Esteves, S.A., priority 1998, dated 2002):

How the values were obtained:
Swiss albino mice [1] = experiment: assay of contortions induced by phenylbenzoquinone; assay type: in vivo; settings: for ED50: Mus musculus
Swiss albino mice [2] = experiment: hot-plate assay; assay type: in vivo; settings: Mus musculus, 0.5 h, sc, hot-plate 55° C., 30 minutes after administration, read-out: ED-50 hot-plate assay (55° C.)
Protocol: The product under study was administered s.c. or i.p. and 30 minutes later the analgesic effect was registered. For this the animals were placed on a metallic surface kept at 50° C. or 55° C. and the time registered (latency) until the licked their hind legs and a jump. The analgesic activity was calculated at each dose, comparing the potency of the treated group with the control group. Using the results obtained the ED-50 was calculated.

[3] = mice, oral route, dose inhibiting by 50% the contortions induced by phenylbenzoquinone i.p. 60 minutes after product
[4] = mice, s.c. route, dose inhibiting by 50% the contortions induced by phenylbenzoquinone i.p. 30 minutes after product

CC(=O)Oc1ccccc1C(=O)O [Aspirin, aspirin]
ED50 (Swiss albino mice [1]; 0.5 h, mice, s.c. route, dose inhibiting by 50% the contortions induced by phenylbenzoquinone i.p. 30 minutes after product, read-out: ED-50 S.C. route): 80 mg/kg | ED50 (Swiss albino mice [1]; 1 h, mice, oral route, dose inhibiting by 50% the contortions induced by phenylbenzoquinone i.p. 60 minutes after product, read-out: ED-50 Oral route): 100 mg/kg

OC1(c2ccc(Cl)cc2)CCN(CCCCn2cc(Cl)cn2)CC1 [Example 5]
ED-50 Oral route (Swiss albino mice [1]; [3]): 20 mg/kg | ED-50 S.C. route (Swiss albino mice [1]; [4]): 28 mg/kg

CN1CC[C@]23c4c5ccc(O)c4O[C@H]2[C@@H](O)C=C[C@H]3[C@H]1C5 [Morfine, morphine]
ED50 (Swiss albino mice [1]; 0.5 h, read-out: ED-50 S.C. route): 1 mg/kg | ED50 (Swiss albino mice [1]; 1 h, read-out: ED-50 Oral route): 4 mg/kg | ED50 (Swiss albino mice [2]): 2 mg/kg

Cc1c(N(C)CS(=O)(=O)[O-])c(=O)n(-c2ccccc2)n1C.[Na+] [Dipirone, dipirone]
ED-50 Oral route (Swiss albino mice [1]; [3]): 223 mg/kg | ED-50 S.C. route (Swiss albino mice [1]; [4]): 24 mg/kg
